Experimental data reported in patent publication US9908845B2, “Aryl ethers and uses thereof” (Peloton Therapeutics, Inc., priority 2013, dated 2018).

Legend:
[1] = system: 786-O xenograft; test: tumor size in 786-O xenograft bearing mice, single agent; type: in vivo; settings: 3, 10, 30 and 100 mg/kg BID for 20 days
[2] = system: 786-O renal cell carcinoma cells; test: In vivo efficacy study, renal cell carcinoma 786-O xenograft model; parameters: species or system SCID/Biege mice
[3] = system: HIF-2α and HIF-2α-regulated genes (PAI-1, CCND1, VEGFA, and GLUT1); test: mRNA levels in tumor of 786-O xenograft bearing mice; type: in vivo; settings: renal cell carcinoma 786-O xenograft bearing mice; 10, 30 and 100 mg/kg three times at 12 hour intervals
[4] = system: human VEGFA; test: plasma human VEGF level of 786-O xenograft bearing mice; type: in vivo; settings: 10, 30 and 100 mg/kg three times at 12 hour intervals, prior to treatment vs 12 h post treatment
[5] = system: human VEGFA; test: In vivo PK/PD study: plasma level of human VEGFA by ELISA; parameters: species or system SCID/Biege mice; settings: 10, 30 or 100 mg/kg oral gavage, three times at 12 hour intervals
Procedure: (§1) About 5×10^6 renal cell carcinoma 786-O tumor cells (ATCC® CRL-1932™, VHL and HIF-1α null cell line) in PBS and Matrigel (1:1 in volume) were injected subcutaneously at the right flanks of SCID/Biege mice at 6-7 weeks of age for xenograft development. When the xenografts reached about 450 mm^3 in size, the tumor bearing mice were randomly divided into 4 groups (n=4). Plasma was collected prior to treatment by retro-orbital bleeding. […] All animals were sacrificed at 12 hours post last dose. Tumor, kidney, and plasma were collected from each animal. Total RNA was extracted from the tumors and kidneys. The mRNA levels of HIF-1α, HIF-2α and their respective target genes were determined by qRT-PCR (FIG. 1).

[6] = system: EPO and PGK1 mRNA in mouse kidney; test: In vivo PK/PD study: mouse kidney mRNA levels by qRT-PCR; parameters: species or system SCID/Biege mice; settings: oral gavage, three times at 12 hour intervals
Procedure: as §1

[7] = molecular target: HIF-2α HIS TAG-PASB Domain; test: HIF-2α Scintillation Proximity Assay (SPA), probe displacement; type: binding
Procedure: The percent inhibition was determined and IC50 values were calculated using the Dotmatics system based on the following equation: % inhibition=[(high control−sample)/(high control−low control)]×100.

Compound: N#Cc1cc(F)cc(Oc2ccc(S(=O)(=O)C(F)F)c3c2CC(F)(F)[C@H]3O)c1 [Compound 15, 3-[(1S)-7-(difluoromethylsulfonyl)-2,2-difluoro-1-hydroxy-indan-4-yl]oxy-5-fluoro-benzonitrile]
- tumor size [1]: tumor size reduction and regression
- Reduction of tumor size vs vehicle (t-Test) ([2]; all treatment groups, 786-O xenograft model): statistically significant reduction
- mRNA levels of HIF-2α and HIF-2α-regulated genes (PAI-1, CCND1, VEGFA, and GLUT1) in tumor [3]: reduced
- plasma level of human VEGFA [4]: reduced
- Human VEGFA in the plasma of 786-O tumor-bearing mice [5]: significant reduction
- Level of EPO mRNA in mouse kidney [6]: reduced
- mRNA level of PGK1 in mouse kidney [6]: remained unchanged

Compound: CCN(CC)CCNC(=O)c1c(C)[nH]c(/C=C2\C(=O)Nc3ccc(F)cc32)c1C [Sutent, sutent, reference compound]
- Tumor size Mean ± SEM ([2]; 40 mg/kg QD, after 20 days of dosing): 211.59 mm^3

Compound: O=S(=O)(c1ccc(Oc2ccc(F)c(Cl)c2)c2c1[C@H](O)C(F)(F)C2)C(F)F [Compound 26, (S)-4-(3-Chloro-4-fluorophenoxy)-7-((difluoromethyl)sulfonyl)-2,2-difluoro-2,3-dihydro-1H-inden-1-ol]
- IC50 [7]: < 5 nM
